Marks after values point to notes of the source that are not given here.
Key:
[1] = system: human skin squamous cell carcinoma A431 cells; experiment: Detecting apoptosis by flow cytometry (Annexin V-FITC/PI); assay type: cell-based; conditions: 72 h
Protocol: (§1) A431 cell lines were seeded in IMDM medium, containing 10% fetal bovine serum, 100 U·ml^−1 penicillin, and 100 μg·ml^−1 streptomycin, and then cultured in 37° C., 5% CO2 incubator. Cells were passaged one generation at 48-72 h, and the cells in the logarithmic growth phase were collected for the experiment.
The cells of each group treated with different concentrations of test substance for 72 h were collected and made into single cell suspension. The living cells were labeled with Annexin V-FITC and PI. After mixing, the cells were incubated in dark for 15 min at room temperature, and then 1× binding buffer was added and mixed, before the apoptotic cells were detected by flow cytometry and analyzed by Multicyc AV software.

[2] = system: human skin squamous cell carcinoma A431 cells; experiment: Inhibition of cell proliferation (MTT method); assay type: cell-based; conditions: 72 h
Protocol: as §1
The cells in logarithmic growth phase were inoculated on 96 well plate and further cultured for 24 hours, then divided into experimental groups and blank control group. […] The blank control group was added with the same volume of IMDM culture medium without test substance. Six multiple wells were set for each concentration. After 72 hours, the newly prepared MTT solution was added. After further culturing for 4 h, DMSO solution was added and shook, so that the crystals were fully dissolved. The absorbance value (A570 nm) of each well was measured on the microplate reader.

[3] = system: head and neck squamous cell carcinoma SCCVII cell lines; experiment: Transplanted tumor of head and neck squamous cell carcinoma SCCVII cell lines in mice; assay type: in vivo, mouse; conditions: 30 mg·kg^−1 intraperitoneally once a day; for Tumor volume / Tumor weight / Tumor inhibition rate: C3H/HeJ mice, SCCVII; for Tumor weight: at end of experiment; for Tumor inhibition rate: from average tumor weight vs negative group
Protocol: When the cells grew vigorously, they were digested with 0.25% trypsin, washed with phosphate buffer, and prepared as cell suspension at 3×10^6 cells/ml for use.
0.1 ml cell suspension was subcutaneously injected into the armpit of the left forelimb of mice. They were randomly divided into groups, 10 mice for one group, including test drug group 1, test drug group 2, test drug group 3, test drug group 4, test drug group 5, test drug group 6, test drug group 7, and negative group (N.S.), respectively. The drug was given on the second day after inoculation. The test drug group was intraperitoneally injected at a dose of 30 mg·kg^−1, once a day, and the administration volume was 1.0 ml; in the negative group, the same volume of normal saline was intraperitoneally injected, once a day.
The tumor volume (v=0.52×the long diameter of transplanted tumor L×the shortest diameter of transplanted tumor W^2) was measured on the 5th day after inoculation, and the mice were weighed every three days. When the tumor volume of the negative group was about 1.0 cm^3, the experiment was stopped, and the mice were killed by cervical dislocation and weighed.

Compound | Apoptosis rate of each experimental group ([1]; 1 μg/ml) | Apoptosis rate of each experimental group ([1]; 2 μg/ml) | Apoptosis rate of each experimental group ([1]; 4 μg/ml) | Apoptosis rate of each experimental group ([1]; 8 μg/ml) | Apoptosis rate of each experimental group ([1]; 16 μg/ml) | Apoptosis rate of each experimental group ([1]; 32 μg/ml) | Apoptosis rate of each experimental group ([1]; 64 μg/ml) | Apoptosis rate of each experimental group ([1]; 128 μg/ml) | inhibitory effect on the tumors in mice transplanted with SCCVII cell lines, compared with the negative group (in words) [3] | Tumor volume ([3]; 5 d after inoculation) | Tumor volume ([3]; 8 d after inoculation) | Tumor volume ([3]; 10 d after inoculation) | Tumor volume ([3]; 13 d after inoculation) | Tumor volume ([3]; 15 d after inoculation) | Tumor volume ([3]; 18 d after inoculation) | Tumor weight [3] | Tumor inhibition rate [3] | further results
O=C(/C=C/c1ccc(O)c(O)c1)O[C@@H]1C[C@](O)(C(=O)O)C[C@@H](O)[C@H]1O [Chlorogenic acid] | 0.57 ± 0.04% | 0.57 ± 0.05% | 0.61 ± 0.06% | 0.71 ± 0.11% | 1.99 ± 0.57% | 4.56 ± 1.08 % | 4.73 ± 1.22 % | 4.87 ± 0.74 % | significant differences | 0.124 ± 0.083 cm^3 | 0.222 ± 0.079 cm^3 | 0.347 ± 0.102 cm^3 | 0.436 ± 0.172* cm^3 | 0.483 ± 0.136* cm^3 | 0.545 ± 0.224* cm^3 | 1.43 ± 0.074 g | 41.15% | inhibition at 1 µg/mL ([2]; Homo sapiens, A-431, A431 cells, 1 μg/ml, read-out: The inhibition rate of each experimental group): 1.12 ± 0.47%; inhibition at 2 µg/mL ([2]; Homo sapiens, A-431, A431 cells, 2 μg/ml, read-out: The inhibition rate of each experimental group): 1.38 ± 0.53%; inhibition at 4 µg/mL ([2]; Homo sapiens, A-431, A431 cells, 4 μg/ml, read-out: The inhibition rate of each experimental group): 5.63 ± 2.29%; inhibition at 8 µg/mL ([2]; Homo sapiens, A-431, A431 cells, 8 μg/ml, read-out: The inhibition rate of each experimental group): 11 ± 4.71%; inhibition at 16 µg/mL ([2]; Homo sapiens, A-431, A431 cells, 16 μg/ml, read-out: The inhibition rate of each experimental group): 18.6 ± 4.82%; inhibition at 32 µg/mL ([2]; Homo sapiens, A-431, A431 cells, 32 μg/ml, read-out: The inhibition rate of each experimental group): 24.5 ± 9.69%; inhibition at 64 µg/mL ([2]; Homo sapiens, A-431, A431 cells, 64 μg/ml, read-out: The inhibition rate of each experimental group): 31.4 ± 7.35%; inhibition at 128 µg/mL ([2]; Homo sapiens, A-431, A431 cells, 128 μg/ml, read-out: The inhibition rate of each experimental group): 36.3 ± 10.8%
O=C(/C=C/c1ccc(O)cc1)O[C@@H]1C[C@](O)(C(=O)O)C[C@@H](O)[C@H]1O [Coumaroylquinic acid] | 0.53 ± 0.03% | 0.55 ± 0.05% | 0.56 ± 0.04% | 0.64 ± 0.13% | 0.69 ± 0.41% | 1.37 ± 0.36% | 2.26 ± 0.69% | 3.07 ± 1.23% | not obvious | 0.124 ± 0.047 cm^3 | 0.258 ± 0.121 cm^3 | 0.369 ± 0.114 cm^3 | 0.604 ± 0.225* cm^3 | 0.653 ± 0.111* cm^3 | 0.811 ± 0.108* cm^3 | 2.11 ± 0.129^ g | 13.17% | inhibitory effect on human skin squamous cell carcinoma A431 (in words) ([2]; 1-128 μg/ml): not obvious; The inhibition rate of each experimental group ([2]; A431 cells, 1 μg/ml): 1.24 ± 0.81%; The inhibition rate of each experimental group ([2]; A431 cells, 2 μg/ml): 1.28 ± 0.69%; The inhibition rate of each experimental group ([2]; A431 cells, 4 μg/ml): 1.33 ± 0.42%; The inhibition rate of each experimental group ([2]; A431 cells, 8 μg/ml): 2.41 ± 0.58%; The inhibition rate of each experimental group ([2]; A431 cells, 16 μg/ml): 2.62 ± 0.86%; The inhibition rate of each experimental group ([2]; A431 cells, 32 μg/ml): 5.77 ± 0.92%; The inhibition rate of each experimental group ([2]; A431 cells, 64 μg/ml): 6.83 ± 1.02%; The inhibition rate of each experimental group ([2]; A431 cells, 128 μg/ml): 8.11 ± 0.63%; Tumor volume ([3]; 22 d after inoculation): 0.954 ± 0.203* cm^3

From US12194013B2 (SICHUAN JIUZHANG BIOLOGICAL SCIENCE AND TECHNOLOGY CO., LTD., priority 2018, dated 2025)
